Earlier results, collected in US20090155392A1, “Methods and Systems for Sublingual Guarana Administration” (priority 2007, published 2009).

Legend:
[1] = in vivo
[2] = versus other lithium salts (lithium carbonate, lithium citrate)

CS(C)(=O)=O [MSM, Methylsulfonylmethane]
homocysteine levels in blood [1]: statistically significant lower levels
joint pain and stiffness [1]: significantly beneficial effect on joint pain and stiffness

COc1cc(CNC(=O)CCCC/C=C/C(C)C)ccc1O [capsaicin, Capsaicin]
mean metabolic rate (30 minutes and 60 minutes after taking the extract): significant increase
subjects with reduced body fat (two week period): 70%

O=C([O-])c1cc(=O)[nH]c(=O)[nH]1.[Li+] [lithium orotate, Lithium orotate]
bio-activity relative to other lithium salts [2]: 20 times
